# Assay results reported in patent publication US20240393694A1, “METAL CONTAINING PHOTORESIST DEVELOPER COMPOSITION, AND METHOD OF FORMING PATTERNS INCLUDING STEP OF DEVELOPING USING THE COMPOSITION” (SAMSUNG SDI CO., LTD., priority 2023, published 2024).
# Assay: pKa of the sulfonimide-based compound (Table 1)
structure (smiles),measurement,value
O=C1NC(=O)c2ccccc21 [Phthalimide],pKa,8.3
O=C1CCC(=O)N1 [Succimide],pKa,9.5
